The results in this text go back to patent US5756463A, “Use of insulin and IGF-1” (Pharmacia & Upjohn AB, priority 1994, dated 1998).

“Also recorded” adds a separate entry of the source.

The subject of data set [1] is Male Sprague-Dawley rats. As to the kind of experiment: Example 1: body weight gain and nitrogen retention in dexamethasone-infused rats, 8-day subcutaneous mini-pump infusion. The settings on record: 8 days. Type of data set: in vivo, rat. How it is done:
On day zero the rats were anaesthetized intraperitoneally with 0.4 ml per 100 g body weight of a mixture of Rompun (20 mg.ml^-1), Ketalar (50 mg.ml^-1) and Saline (0.9%) in 1:2:3 volume proportions. The hair on the back of the rats was shaved off and the exposed skin carefully washed with 0.05% chlorhexidine (Pharmacia, Stockholm, Sweden) and 0.4 % jodopax (Molnlycke, Goteborg, Sweden), both being diluted in 70% alcohol. Two mutually parallel incisions, each of 15 mm in length, were then made along the dorsal midline. The incisions penetrated the epidermis, dermis and subcutaneous muscle but left the deep fascia intact. Two subcutaneous pockets were made on both sides of the incisions by separating the subcutaneous muscle from the deep fascia. One (Exp. I) or two (Exp. 2) mini-pumps were implanted in each pocket. The wounds were closed with sutures 4-0 (Johnson & Johnson). Osmotic mini-pumps (Alzet 2001, Alza Corporation, Palo Alto, USA) releasing 1 μl.h^-1 for 8 days were used for continuous delivery of hormones and Dex to the animals. The pumps were filled to a volume of 0.22 ml with solutions of rhGH (14.4 mg.ml^-1, Genotropin®, Pharmacia), […] (20 mg.ml^-1, Igef®, Pharmacia, Kabi Peptide Hormones, Stockholm, Sweden), insulin (1.57 mg/ml, Actrapid®, Novo, Copenhagen, Denmark), Dex (1.04 mg.ml^-1, Decadron, Merck Sharp & Dohme International, […], USA) or Saline (0.9%). Two (Example 1) or four (Example 2) pumps combined as described above were implanted in each rat. Implantation of the pumps was performed under strictly aseptic conditions. Total feed intake was registered throughout the full 8 day experimental period. Urine and faeces were collected daily, pooled and kept at -20° C. until analysed. Excreta was collected by housing the animals in individual metabolism cages that were specially designed for the separation of urine and faeces. In order to inhibit urease-activity in the urine, 1 ml of 5% sulphuric acid was pipetted every morning in the collection vessels. The 24 hour collections of urine were pooled individually for each treatment period and immediately frozen after the collection. Similarly, the samples of faeces were also pooled individually for each treatment period and kept frozen (-20° C.) until analysis. Urea in serum was determined spectrophotometrically by using the Urea UV Uni-Kit I (Roche) with an autoanalyzer (Cobas Mira, Roche Co, Basel, Switzerland). Urea values were expressed in mmol/l. The total nitrogen content in urine was determined with the aid of the Antek Pyro-Chemiluminiscence Nitrogen System. The apparatus used comprised the […] nitrogen analyser with Liquid Auto Sampler 736-2 and a pyrolysis tube with a ceramic […] Instruments Inc., Houston, Tex., U.S.A.). The frozen urinary samples were thawed and diluted 1:100 with 0.1 M HCl and then analysed. The urinary nitrogen values were then calculated as mg nitrogen excreted. Total nitrogen in faeces was determined by an established Kjeldahl method (Kjeltec System, Tecator AB, Halsingborg, Sweden). The frozen faecal samples were thawed and dried in an oven at 60° C. overnight. The weight of the dried sample was noted and the sample then ground. 0.20 g of the milled faecal sample was mixed in a Kjeldahl digestion tube with 10.0 ml of concentrated sulphuric acid. 2.0 ml of a 30% solution of H202 (30% Perhydrol, Merck, Darmstadt, Germany) was added and mixed carefully. One catalyst tablet (Kjeltabs CA, Thompson & Capper, Runcom, Cheshire, UK) was added to each sample. The mixture was digested at […] for at least one hour or until complete bleaching of the sample was achieved. […] The faecal nitrogen values were calculated as mg nitrogen excreted. Data were subjected to a one-way analysis of variance in which the effect of treatment was considered the prime source of variation. Calculations were executed by the GLM procedure of the SAS program (SAS 1985). […]

The test system of data set [2] is Male Sprague-Dawley rats. As to the kind of experiment: Example 2: feed intake, nitrogen digestibility and nitrogen retention in dexamethasone-infused rats, 8-day mini-pump infusion of peptide combinations. In kind it is in vivo, rat. The note with it: 8 days; for relative nitrogen retention (retained N/digested N×100): Dex 26 μg/day with saline or with insulin 39, rhGH 360, rhIGF-I 500 μg/day, mean, pooled SE, saline alone 38.7%; for nitrogen retention, effect compared with Dex without peptide: Dex 26 μg/day plus peptide. Here is the method: On day zero the rats were anaesthetized intraperitoneally with 0.4 ml per 100 g body weight of a mixture of Rompun (20 mg.ml^-1), Ketalar (50 mg.ml^-1) and Saline (0.9%) in 1:2:3 volume proportions. The hair on the back of the rats was shaved off and the exposed skin carefully washed with 0.05% chlorhexidine (Pharmacia, Stockholm, Sweden) and 0.4 % jodopax (Molnlycke, Goteborg, Sweden), both being diluted in 70% alcohol.
Two mutually parallel incisions, each of 15 mm in length, were then made along the dorsal midline. The incisions penetrated the epidermis, dermis and subcutaneous muscle but left the deep fascia intact. Two subcutaneous pockets were made on both sides of the incisions by separating the subcutaneous muscle from the deep fascia. One (Exp. I) or two (Exp. 2) mini-pumps were implanted in each pocket. The wounds were closed with sutures 4-0 (Johnson & Johnson).
Osmotic mini-pumps (Alzet 2001, Alza Corporation, Palo Alto, USA) releasing 1 μl.h^-1 for 8 days were used for continuous delivery of hormones and Dex to the animals. The pumps were filled to a volume of 0.22 ml with solutions of rhGH (14.4 mg.ml^-1, Genotropin®, Pharmacia), rhlGF-I (20 mg.ml^-1, Igef®, Pharmacia, Kabi Peptide Hormones, Stockholm, Sweden), insulin (1.57 mg/ml, Actrapid®, Novo, Copenhagen, Denmark), Dex (1.04 mg.ml^-1, Decadron, Merck Sharp & Dohme International, Rathway, USA) or Saline (0.9%). Two (Example 1) or four (Example 2) pumps combined as described above were implanted in each rat. Implantation of the pumps was performed under strictly aseptic conditions.
Total feed intake was registered throughout the full 8 day experimental period. Urine and faeces were collected daily, pooled and kept at -20° C. until analysed. Excreta was collected by housing the animals in individual metabolism cages that were specially designed for the separation of urine and faeces. In order to inhibit urease-activity in the urine, 1 ml of 5% sulphuric acid was pipetted every morning in the collection vessels. The 24 hour collections of urine were pooled individually for each treatment period and immediately frozen after the collection. Similarly, the samples of faeces were also pooled individually for each treatment period and kept frozen (-20° C.) until analysis.
Urea in serum was determined spectrophotometrically by using the Urea UV Uni-Kit I (Roche) with an autoanalyzer (Cobas Mira, Roche Co, Basel, Switzerland). Urea values were expressed in mmol/l. The total nitrogen content in urine was determined with the aid of the Antek Pyro-Chemiluminiscence Nitrogen System. The apparatus used comprised the Antek 7000N nitrogen analyser with Liquid Auto Sampler 736-2 and a pyrolysis tube with a ceramic liner (Antek Instruments Inc., Houston, Tex., U.S.A.). The frozen urinary samples were thawed and diluted 1:100 with 0.1 M HCl and then analysed. The urinary nitrogen values were then calculated as mg nitrogen excreted.
Total nitrogen in faeces was determined by an established Kjeldahl method (Kjeltec System, Tecator AB, Halsingborg, Sweden). The frozen faecal samples were thawed and dried in an oven at 60° C. overnight. The weight of the dried sample was noted and the sample then ground. 0.20 g of the milled faecal sample was mixed in a Kjeldahl digestion tube with 10.0 ml of concentrated sulphuric acid. 2.0 ml of a 30% solution of H202 (30% Perhydrol, Merck, Darmstadt, Germany) was added and mixed carefully. One catalyst tablet (Kjeltabs CA, Thompson & Capper, Runcom, Cheshire, UK) was added to each sample. The mixture was digested at […] for at least one hour or until complete bleaching of the sample was achieved. The nitrogen content of this solution was determined after alkalinization by steam distillation of the ammonia and automated titration of the distillate. The faecal nitrogen values were calculated as mg nitrogen excreted.
Data were subjected to a one-way analysis of variance in which the effect of treatment was considered the prime source of variation.

The mark [3] stands for this setting: Dex 26, 13 or 6.5 μg/day (every Dex dose), rhGH 360 μg/day or rhIGF-I 500 μg/day s.c. mini-pump, compared with saline.

For the compound `C[C@@H]1C[C@H]2[C@@H]3CCC4=CC(=O)C=C[C@]4(C)[C@@]3(F)[C@@H](O)C[C@]2(C)[C@@]1(O)C(=O)CO` [Dex, dexamethasone, reference compound], in the data set with Male Sprague-Dawley rats [1] (Dex 6.5, 13, 26 μg/day), the “body weight gain, effect of Dex dose” value is recorded as “general decrease with increased Dex dose”. Further, in the data set with Male Sprague-Dawley rats [2], the “relative nitrogen retention (retained N/digested N×100)” value (“relative nitrogen retention” for short) is 7.2%. The “reduction of feed intake” value in the data set with Male Sprague-Dawley rats [2] (Dex 26 μg/day) is reported as “approximately 20%”.

On to insulin, for which, in the data set with Male Sprague-Dawley rats [2], the “nitrogen retention, effect compared with Dex without peptide” value is given as “without effect” and the “relative nitrogen retention” value is 11.9%.

With recombinant human growth hormone [rhGH], the body weight gain result is reported as “opposite effect” in the data set on Male Sprague-Dawley rats [1] (setting [3]); “opposite effect (p<0.05)” in the data set with Male Sprague-Dawley rats [1] (Dex 26, 13 or 6.5 μg/day (every Dex dose), rhGH 360 μg/day or rhIGF-I 500 μg/day s.c. mini-pump, compared with saline, listed as hGH); “negative values for body weight gain” in the data set on Male Sprague-Dawley rats [1] (medium and high Dex infusion dose (13 and 26 μg/day), rhGH 360 μg/day). Also, the “nitrogen retention, effect compared with Dex without peptide” value in the data set on Male Sprague-Dawley rats [2] is on record as “without effect”. The “relative nitrogen retention” value with Male Sprague-Dawley rats [2] is reported as 3.8%.

Turning to “recombinant human insulin-like growth factor I [rhIGF-I]”, the body weight gain result in the data set with Male Sprague-Dawley rats [1] (setting [3]) is given as “significantly (p<0.05) higher weight gain in comparison with saline; also recorded: significantly (p<0.05) increased”. The retention of nitrogen result in the data set on Male Sprague-Dawley rats [1] (Dex 26, 13 or 6.5 μg/day, rhIGF-I 500 μg/day, compared with saline and rhGH) is on record as “significantly (p<0.05) higher”. Besides, in the data set on Male Sprague-Dawley rats [2], the “relative nitrogen retention” value was found to be 23.0%.
